| Structure (SMILES) | melting point [°C] |
| --- | --- |
| Cc1c(C#N)c(SC(F)(F)F)cn1-c1c(Cl)cc(C(F)(F)F)cc1Cl | 98.5 |
| CC#CC(C)(C)N(C)C(=O)C(CC)Oc1cncc(Cl)c1 (stereo unspecified) | 67 to 68 |
| O=C(Cc1ccc(F)cc1)NC1CCN(Cc2ccc(Cl)c(Cl)c2)CC1 | 144 to 147 |
| CN1c2ccccc2N(C(=O)CN2CCCC2)c2ccccc2S1(=O)=O | 175 to 177 |
| O=C1N=NC(=O)c2c1[nH]c1cc(Cl)cc(Cl)c21 | > 300 |
| Cc1ccc(-c2ccc(C(=O)Nc3ccc4nc(CN5CCCC5)ccc4c3)cc2)cc1 | 192 to 193 |
| CC(C)Cn1c(SCc2ccccn2)nc2ccccc2c1=O | 91.7 to 93.2 |
| CC1(C)CN(CC(=O)c2ccccc2)c2cc([N+](=O)[O-])ccc2O1 | 125 to 128 |
| NCC(O)COc1cccc2ccccc12 (stereo unspecified) | 106 |
| Cc1ccc(F)cc1C(=O)Nc1ccc(C(=O)N2Cc3cccn3Cc3ccccc32)cc1 | 170 to 180 |
| O=c1[nH]c(=O)n(C2CC(OCc3ccccc3Cl)C(CO)O2)cc1F (stereo unspecified) | 78 to 80 |
| CN(C)CC1CCc2[nH]c3c(c2C1=O)CCC3 (stereo unspecified) | 164 to 165 |
| CC(C)(CC(O)(Cn1ccc2c1CCCC2=O)C(F)(F)F)c1cc(-c2cncnc2)cc2c1OCC2 (stereo unspecified) | 213 to 214 |
| Cc1nc2c(F)c(F)cc(F)c2s1 | 91 to 92 |
| CCCN(CCC)c1nsc(N)c1C#N | 136 to 138 |
| CN(C)c1ccc2nc[nH]c(=O)c2c1 | 233 to 236 |
| CCC1CN(Cc2c(C)cc(C)cc2C)CCN1 (stereo unspecified) | 111 to 114 |
| NC(=O)C(c1ccc([N+](=O)[O-])cc1)c1ccccn1 (racemic) | 155 to 156 |
| CN(C)C(=O)N(CCl)c1ccc(Cl)cc1 | 37 to 43 |
| Clc1ncc(Br)c(NC2CCCC2)n1 | 95 to 96 |
| CN1C(=O)C(NC(=O)CCC2CCCCC2)N=C(c2ccccc2)c2ccsc21 (stereo unspecified) | 189 to 190 |

| Structure (SMILES) | melting point [°C] |
| --- | --- |
| CCCCCCCCOc1ccc(-c2nnc(-c3cc(Cl)ccc3Cl)o2)cc1 | 86 |
| COC(=O)c1ccc(NS(C)(=O)=O)c(C=O)c1 | 161 to 163 |
| Nc1ccncc1C(=NO)c1ccccc1F | 212 to 214 |
| COC(=O)CCCCCSC1=CCCC1=O | 45 to 46.5 |
| CC(C)CCC(=O)N[C@@H]1N=C(c2ccccc2)c2ccccc2N(C)C1=O | 123 to 125 |
| COc1cc2ncnc(N3CCN(C(=O)Nc4ccccc4)CC3)c2cc1OC | 121 to 123 |
| Cc1nnc2n1-c1sc(C#CCn3c(=O)n(C)c(=O)c4ccccc43)cc1C(c1ccccc1Cl)=NC2 | 167 to 170 |
| CCCCCCOC(=O)OC(C)OC1=C(C(=O)Nc2ccccn2)N(C)S(=O)(=O)c2ccccc21 (stereo unspecified) | 86 to 87 |
| CC(C)(C)OC(=O)n1cc(C(=O)C2CSC(c3cccnc3)N2C(=O)C=O)c2ccccc21 (stereo unspecified) | 125 to 130 |
| CC(=Nc1cc(C(F)(F)F)cc2nc(C)n(C(C)C)c12)c1ccccc1 | 164 to 166 |
| Cn1c(C(=O)N2CCCC2)cc2cc(OCCNCC(O)COc3ccccc3)ccc21 (stereo unspecified) | 130 |
| O=C(Nc1ccc2c(c1)C=CC2)C(F)(F)F | 132 |
| CN1C(=O)CN(N)C(c2ccccc2)c2cc(Cl)ccc21 (stereo unspecified) | 147 to 148 |
| CC(C)(C)c1cccc(C[C@@H]2N[C@@H](c3ccccc3)[C@@H](c3ccccc3)OC2=O)c1 | 136 to 137 |
| CC(O)c1nnc2n1-c1sc(Cl)cc1C(c1ccccc1Cl)=NC2 (stereo unspecified) | 118 to 120 |
| c1ccc2c(c1)Cc1cc(C3(Cn4ccnc4)OCCO3)ccc1-2 | 163 to 166 |
| Cc1ccc(-c2ccc(-c3nnnn3CCCCCCc3cccnc3)cc2)cc1C | 101 to 103 |
| COc1nc(Br)c(C)nc1NS(=O)(=O)c1cccc(Cl)c1Cl | 146 to 148 |
| Nc1ncc(-c2ccc(F)c(F)c2)nc1C(=O)Nc1cccnc1 | 232 to 234 |
| N#Cc1nc(NCc2cnn(-c3c(Cl)cc(C(F)(F)F)cc3Cl)n2)[nH]c1C#N | 213 to 215 |

Now from value to compound:

| melting point [°C] | Structure (SMILES) |
| --- | --- |
| 243 to 245 | CCn1c2ccccc2c2cc(-n3c(CC(=O)O)c(C(=O)O)c4cc(Oc5ccc(C(F)(F)F)cc5)ccc43)ccc21 |
| 28 to 30 | COC(=O)c1ccc(Br)cc1Cl |
| 187 to 188 | O=C(O)c1cc(C#Cc2ccccc2)cc2c1NCCC2 |
| 125 | COc1ccc(OCC(F)(F)F)cc1N1CCN(CCCNC(=O)c2c(-c3ccccc3)noc2C)CC1 |
| 204 to 205 | CC(=O)Nc1ccccc1C#Cc1c(F)c(F)nc(F)c1F |
| 150 to 153 | Cc1ccc(-c2cn(C)cc(-c3cccc(C(F)(F)F)c3)c2=O)cc1C |
| 182 to 184 | N#CC1=C(c2ccccc2)Nc2ccccc2S1=O (stereo unspecified) |
| 180 | Cn1cc(-c2cc(-c3cnc4ccccc4c3)ccn2)n(-c2ccc(C(C)(C)C#N)cc2)c1=O |
| 71 to 72 | NC(N)=NC(=O)Cc1c(-c2ccccc2Cl)csc1-c1ccc(OCCc2cn[nH]c2)cc1 |
| 180 | Nc1cnc(NCC2CCCCC2)nc1O |
| 179 to 180 | Cc1c(NC(=O)c2ccc(-c3ccc(F)cc3)cc2)ccc2cc(CN(C(C)C)C(C)C)cnc12 |
| 173 to 176 | COc1cc(OC)c(C(=O)CC(=O)c2cc(OC)c(OC)cc2OC)cc1OC |
| 97 to 98 | CCN(CC)CCNc1cc(-c2c(-c3cccc(C)c3)nc3cccnn23)ccn1 |
| 285 to 288 | CC(=O)Oc1c2ccc(C(F)(F)F)cc2c(OC(C)=O)c2cc3ccccc3cc12 |
| 240 to 245 | Cn1c(COc2cccc(C(=O)O)c2)nc2ccc(Oc3cccnc3)cc21 |
| 222 to 223 | O=C(C=Cc1ccccc1)Nc1cccc(O)c1 |
| 120 to 122 | OCc1cccc2c1CCCN2 |
| 250 | Cc1nn(C)c(O)c1C(=O)c1c(Cl)cccc1Cl |
| 158 | COc1ccc(CN(C)CCCSc2ccc(NC(=O)c3cccc4c(=O)c5cccc(C)c5[nH]c34)cc2)cc1OC |
| 214 to 215 | O=c1cccc(-c2nc(=O)c3ccccc3s2)[nH]1 |

| melting point [°C] | Structure (SMILES) |
| --- | --- |
| 217 to 220 | N#Cc1ccc2nc(Cl)c3ccccc3c(=O)c2c1 |
| 65 to 70 | C#CCC1CCC(=O)C(C(=O)c2ccc(S(C)(=O)=O)cc2[N+](=O)[O-])C1=O (stereo unspecified) |
| 150 to 152 | COC(=O)c1ccc(CSc2c(C(N)=O)sc3ccc(OC)cc23)cc1 |
| 189 to 191 | CCCCCC1=CN(N)C2=NC(O)N(CCCNC(C)=O)C2=C1 (stereo unspecified) |
| 84 to 85 | O=C(CCCSc1ccccc1)N1C(=O)OCC1Cc1ccccc1 (stereo unspecified) |
| 117 to 118 | Cc1c(C#N)ncn1-c1cccc(Cl)c1 |
| 213 to 214 | Cc1ccc(-c2cccc(/C=C/C(=O)Nc3ccc(-c4cccnc4)cc3)c2)cc1 |
| 276 to 281 | Cc1ccc(C(=O)NC(=O)Nc2ccc3c(c2)NC(=O)/C3=C\c2ccc[nH]2)cc1 |
| 210 | Cc1cccc(CC(=O)c2ccnc(-c3ccc(C(=O)NC4CCOCC4)cc3)c2)n1 |
| 163 to 165 | CSC(=O)C(=O)c1cccc(NC=O)n1 |
| 126 to 129 | CC(=O)NC(C)(C)c1ccc(CO)cc1 |
| 114 to 115 | CCOC(=O)Nc1c(F)cc(Cl)c2c1OC(C)(C)C2 |
| 129 to 130 | COc1ccc(-c2cc(C#N)c[nH]2)c(OC)c1 |
| 189 to 190 | Cc1cc(C)c2ncc(NC(=O)Cc3cc(C(C)(C)C)c(O)c(C(C)(C)C)c3)c(-c3ccccc3Cl)c2c1 |
| 160 to 162 | C=C(C)C(=O)Nc1ccc(-n2nc(C(F)(F)F)cc2C(F)(F)F)cc1 |
| 53 to 54 | CCN(CCO)c1ccc(I)cc1 |
| 179 | COc1c(O)c(CN2CCN(C)CC2)c(O)c2c(=O)cc(-c3ccccc3)oc12 |
| 213 | Cc1ccc(S(=O)(=O)NC(=O)OCCc2ccc(-n3c(C(C)C)nc4c(C)nc(C)cc43)cc2)cc1 |
| 152 to 154 | CCc1nc2c(N)nc(C)c(C)c2n1CCOCCN |
| 164 | COC(=O)c1cscc1Nc1ccc(F)cc1[N+](=O)[O-] |

| melting point [°C] | Structure (SMILES) |
| --- | --- |
| 238 to 239 | c1ccc(-c2nccn3cnnc23)cc1 |
| 128 | CCCCCCc1ccc(OCCCCCC(=O)Nc2ccc(O)cc2)cc1O |
| 197 to 199 | O=S(=O)(Nc1c(Cl)ccc2cc(-c3ncc(CO)s3)[nH]c12)c1cccs1 |
| 122 to 124 | O=C(Cn1nccc1-c1ccc(Oc2ccc(F)cc2)cc1)N1CCOCC1 |
| 105 | Cn1c(OCC(F)(F)F)nn(C(=O)Oc2ccccc2)c1=O |
| 109 to 110 | CCOC(=O)CC1CN=C(c2cc3c(C)ccc(N(C)S(=O)(=O)c4cccs4)c3[nH]2)S1 (stereo unspecified) |
| 238 | O=C(O)c1c(Cc2cc3c(cc2Cl)OCO3)c(-c2ccccn2)nn1CC1CCCCC1 |
| 140 to 142 | O=C(NC(=O)c1ccccc1Cl)Nc1cc(Cl)c2c(c1)C(F)(F)C(F)(F)S2 |
| 118 to 120 | CC(O)(CC(=O)O)c1ccc(-c2ccc(Br)cc2Br)cc1 (stereo unspecified) |
| 78 to 79 | CCCOc1cc(Oc2ccc(C(F)(F)F)cn2)ccc1CCCOc1c(CC(=O)O)cccc1OC |
| 30 to 31 | CCCCCCCCC(=O)OCC(O)COC(=O)CCCCCCCC |
| 156 to 158 | Cc1cccc(Nc2cc(Cl)nc(SCC(=O)NC3CCCCC3)n2)c1C |
| 141 to 143 | CCOc1cc2c(cc1OC)C(c1ccc(C(=O)OC)cc1)=N[C@@H]1CCOC[C@H]21 |
| 111 to 114 | Cc1cccc(C(=O)NN(C(=O)c2ccccc2)C(C)(C)C)c1 |
| 129 to 130 | O=C1CC(=O)C2CCC1C2 |
| 168 to 170 | O=C1NC(=O)C(=Cc2ccc(OCCN3c4ccccc4Sc4ccccc43)cc2)S1 |
| 258 to 260 | O=C(O)[C@H]1C[C@H](F)CN1 |
| > 300 | COc1ccccc1Oc1c(NS(=O)(=O)c2cccs2)nc(-c2ncccn2)nc1OCCOc1ncc(Br)cn1 |
| 165 to 167 | COc1ccc(C(=O)c2ccc(OCc3coc(-c4ccccc4)n3)cc2)c(OC(C)(C)C(=O)O)c1 |
| 273 to 275 | O=c1nc(-c2ccc(O)cc2)oc2ccccc12 |
